IC50 data for 51 compounds are collected here from PubChem BioAssay AID1949 (Southern Research Institute, 2009).

A word on the IC50: it is the midpoint of a concentration-inhibition curve.

Values after ≈ are worked out from the molar mass of the structure shown. Results filed as inconclusive are left out. Active and inactive are the calls of the source. How the calls were made is not given here.

For the assay, the system named is M. tuberculosis H37Rv growth inhibition. Put plainly: Mycobacterium tuberculosis H37Rv growth inhibition, cell based, confirmatory dose response (AID 1949).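 Further: bacteria grown 7 days with compound before Alamar blue readout.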

For `Cn1nc(-c2ccc(N3CCCCC3)c(NC(=O)c3ccco3)c2)c2ccccc2c1=O`, the IC50 was > 50 mg/L (inactive).

As for `O=C1N(Cc2ccccc2Cl)c2ccc(Cl)cc2C1(O)c1c[nH]c2ccccc12` (stereo unspecified), the IC50 is 3.04 mg/L (≈ 7.18 µM). Turning to `CCOC(=O)c1c(-c2cccs2)csc1NC(=O)c1cc2ccccc2oc1=O`, the IC50 is 4.76 mg/L (≈ 11.2 µM). In the case of `O=C(CCNc1ccc(Cc2ccncc2)cc1)c1cccs1` it was 5.83 mg/L (≈ 18.1 µM); in that of `O=C(Nc1ncnc2sc3c(c12)CCCC3)c1ccc(F)cc1`, 0.52 mg/L (≈ 1.59 µM); in that of `O=C(Nc1ccc([N+](=O)[O-])cc1)c1cc(Br)ccc1O`, 17.9 mg/L (≈ 53.2 µM). On to `C=CCc1ccccc1OCCCCn1ccnc1`, for which the IC50 is 3.93 mg/L (≈ 15.3 µM). With `OCc1cn(-c2ccccc2)nc1-c1ccc2c(c1)OCCO2`, the half-inhibitory concentration (IC50) is 6.9 mg/L (≈ 22.4 µM).

Take `CC1CCc2c(sc3nc4c5ccccc5c(N5CCN(CCO)CC5)nn4c(=O)c23)C1` (stereo unspecified): the half-maximal inhibitory concentration (IC50) was 4.86 mg/L (≈ 10.8 µM). For the compound `Cc1ccc(NC(=O)c2ccc(OCC(=O)OC3CCCCC3)cc2)cc1`, the IC50 is 2.73 mg/L (≈ 7.43 µM).

Regarding `C#CCOc1c(Cl)cc(/C=C/[N+](=O)[O-])cc1Cl`, the IC50 is > 50 mg/L (inactive). Then `COC(=O)COc1ccc(NC(=O)c2ccccc2F)cc1`, with 0.65 mg/L (≈ 2.14 µM).

For the compound `COC(=O)c1ccc2c(=O)n(-c3ccccc3)c(SCc3ccccc3)nc2c1`, the IC50 was 22.6 mg/L (≈ 56.2 µM).

Take `Cc1cc(Cl)ccc1OCC(=O)Nc1ccc(N2CCN(C)CC2)c(Cl)c1`: the 50% inhibitory concentration (IC50) was 5.62 mg/L (≈ 13.8 µM). `CCCc1cc(C(=O)OC)c(NC(=O)c2cc3ccccc3oc2=O)s1`: the concentration for half-maximal inhibition (IC50) is 39.4 mg/L (≈ 106 µM).

As to `Cc1cc(Cl)c(OCCCNCc2ccccc2)c(Br)c1`, the concentration for half-maximal inhibition (IC50) was 11.3 mg/L (≈ 30.7 µM). Regarding `Cc1cccc(N2CCN(c3ncnc4sc5c(c34)CCCC5)CC2)n1`, the IC50 was 2.26 mg/L (≈ 6.18 µM).

Consider `COc1c(C)cccc1C(=O)Nc1ccc(N2CCCC2)cc1`, for which the 50% inhibitory concentration (IC50) is 4.85 mg/L (≈ 15.6 µM). For the compound `COc1ccc(C2CC(=O)Nc3ccc4ccccc4c32)c(I)c1O` (stereo unspecified), the 50% inhibitory concentration (IC50) is 3.48 mg/L (≈ 7.82 µM). As for `Cc1cccc(C)c1OCc1nnc(SCC(=O)NCCc2ccccc2)o1`, the IC50 was 1.75 mg/L (≈ 4.4 µM). As to `CC1=CC(C)(C)Nc2ccc(OC(=O)c3cccnc3)cc21`, the IC50 is 2.88 mg/L (≈ 9.78 µM). With `COC(=O)c1ccc(COC(=O)c2ccccc2OC)cc1`, the IC50 was 2.87 mg/L (≈ 9.56 µM). For the compound `Cc1ccc(C(=O)Oc2ccc(Cl)c3cccnc23)cc1[N+](=O)[O-]`, the IC50 was 0.94 mg/L (≈ 2.74 µM).

On to `O=C(Nc1ccc(Br)c(C(F)(F)F)c1)c1ccccc1`, for which the concentration for half-maximal inhibition (IC50) is 3.26 mg/L (≈ 9.47 µM).

Regarding `CCOc1ccc(OCc2ccc(C(=O)Nc3ccc(Cl)cn3)o2)cc1`, the IC50 was 19.9 mg/L (≈ 53.5 µM). As to `Cc1ccc(NC(=O)C2C3CC/C=C\CC/C=C/CCC32)cc1C` (stereo unspecified), the IC50 was 23.6 mg/L (≈ 72.8 µM). Turning to `O=C(CN(c1ccc(Cl)c(Cl)c1)S(=O)(=O)c1ccccc1)Nc1cccc([N+](=O)[O-])c1`, the IC50 was 1.47 mg/L (≈ 3.06 µM). Take `CN(C)C(=S)Nc1nc2ccccc2s1`: the half-inhibitory concentration (IC50) was less than 0.1 mg/L.

As to `COC(=O)CSc1nnc(-c2ccccc2C)o1`, the IC50 was 4.38 mg/L (≈ 16.6 µM). As to `O=C(Oc1ccc(F)cc1)c1sc2ccccc2c1Cl`, the half-inhibitory concentration (IC50) is 3.07 mg/L (≈ 10 µM).

`COC(=O)c1ccc(OCC(=O)c2ccc(F)cc2)cc1`: the IC50 was > 50 mg/L (inactive). Take `CN(C)CC1CC(C(C)(C)C)CCC1=O` (stereo unspecified): the concentration for half-maximal inhibition (IC50) is 2.45 mg/L (≈ 11.6 µM). Turning to `COC(=O)c1cccc(NC(=O)COc2ccc(C(C)(C)C)cc2)c1`, the IC50 was > 50 mg/L (inactive).

For `CC(Oc1ccc(C(=O)NCCc2ccccc2)cc1)C(=O)OCc1ccccc1` (stereo unspecified), the half-inhibitory concentration (IC50) is 2.32 mg/L (≈ 5.75 µM). On to `Cc1ccc(-c2ccc(OCC(=O)OCc3ccccc3)cc2)cc1`, for which the IC50 was 0.23 mg/L (≈ 0.692 µM). As to `COc1cc(CNc2nccs2)cc(Br)c1OCc1ccc(F)cc1`, the IC50 is 11.5 mg/L (≈ 27.1 µM).

As for `COC(=O)c1ccc(NC(=O)CSc2ccc(F)cc2)cc1`, the IC50 is 4.02 mg/L (≈ 12.6 µM).

Turning to `CCCCc1ccc(NC(=O)COc2ccc(OCC)cc2)cc1`, the half-maximal inhibitory concentration (IC50) was 4.9 mg/L (≈ 15 µM).

Regarding `COc1cc(C=O)ccc1OC(=O)c1cccs1`, the IC50 is 4.13 mg/L (≈ 15.7 µM). Regarding `Cn1nc([N+](=O)[O-])nc1Oc1ccc(C(C)(C)C)cc1`, the IC50 was less than 0.1 mg/L. In the case of `CCCCc1ccc(NC(=O)c2cc3cc(Br)cc(OC)c3oc2=O)cc1` it was 0.69 mg/L (≈ 1.6 µM). Consider `COc1cccc(C(=O)NC(=S)Nc2ccc(N3CCN(C(=O)c4cccs4)CC3)c(Cl)c2)c1`, for which the IC50 is 0.76 mg/L (≈ 1.48 µM). Then `CCN(CC)CCC(=O)c1ccc(C(C)C)cc1`, with 47.6 mg/L (≈ 193 µM); and `NC(=O)CSc1nnc(SCc2cccc3ccccc23)s1`, with 15.1 mg/L (≈ 43.5 µM). Then `CCOc1ccc(C(=O)NC(=S)Nc2ccc(N3CCN(C)CC3)c(Cl)c2)cc1Cl`, with > 50 mg/L (inactive); and `Cc1ccc(Cl)cc1N1CCN(CC(O)COc2ccc(Cl)cc2)CC1` (stereo unspecified), with 4.57 mg/L (≈ 11.6 µM). Consider `CCc1cc2c(=O)c(-c3ccc4c(c3)OCCO4)coc2cc1OCC(=O)OC(C)C`, for which the IC50 is 5.83 mg/L (≈ 13.7 µM). Then `COc1cc2c(cc1NC(=O)Nc1ccc(Cl)cc1)oc1ccccc12`, with 1.33 mg/L (≈ 3.63 µM); and `c1ccc2cc(OCCCn3ccnc3)ccc2c1`, with 10.3 mg/L (≈ 40.9 µM); and `CCC(=O)NC(=S)Nc1ccc(NC(=O)c2cc(I)ccc2Cl)cc1`, with 0.43 mg/L (≈ 0.882 µM). Regarding `CC(C(=O)OCc1ccccc1Cl)n1cnc2scc(-c3ccc(Cl)cc3)c2c1=O` (stereo unspecified), the IC50 is > 50 mg/L (inactive).
